Laboratory results as given in PubChem BioAssay (NCI).
Values joined by “and” are separate entries in the source; they are usually repeats but may differ in a detail not shown here. Identical values can stand only once.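 Results reflect a 48-hour exposure of cells in 96-well plates to compound at five concentrations. At the GI50, growth is halved. TGI marks complete inhibition of growth.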

How the values were obtained:
Assay in all cases: growth of human tumour cells (NCI), 48 h
786-0 renal = tested on: 786-0 renal
A549 NSCLC = tested on: A549 NSCLC
ACHN renal = tested on: ACHN renal
BT-549 breast = tested on: BT-549 breast
CCRF-CEM leukemia = tested on: CCRF-CEM leukemia
COLO 205 colon = tested on: COLO 205 colon
DU-145 prostate = tested on: DU-145 prostate
EKVX NSCLC = tested on: EKVX NSCLC
HCT-116 colon = tested on: HCT-116 colon
HCT-15 colon = tested on: HCT-15 colon
HL-60(TB) leukemia = tested on: HL-60(TB) leukemia
HOP-62 NSCLC = tested on: HOP-62 NSCLC
HOP-92 NSCLC = tested on: HOP-92 NSCLC
HS 578T breast = tested on: HS 578T breast
HT29 colon = tested on: HT29 colon
IGROV1 ovarian = tested on: IGROV1 ovarian
K-562 leukemia = tested on: K-562 leukemia
LOX IMVI melanoma = tested on: LOX IMVI melanoma
M14 melanoma = tested on: M14 melanoma
MALME-3M melanoma = tested on: MALME-3M melanoma
MDA-MB-231 breast = tested on: MDA-MB-231 breast
MDA-N = tested on: MDA-N
MOLT-4 leukemia = tested on: MOLT-4 leukemia
NCI-H226 lung = tested on: NCI-H226 lung
NCI-H23 lung = tested on: NCI-H23 lung
NCI-H460 lung = tested on: NCI-H460 lung
NCI-H522 lung = tested on: NCI-H522 lung
NCI/ADR-RES ovarian = tested on: NCI/ADR-RES ovarian
OVCAR-3 ovarian = tested on: OVCAR-3 ovarian
OVCAR-5 ovarian = tested on: OVCAR-5 ovarian
OVCAR-8 ovarian = tested on: OVCAR-8 ovarian
PC-3 prostate = tested on: PC-3 prostate
RXF 393 renal = tested on: RXF 393 renal
SF-268 CNS = tested on: SF-268 CNS
SF-295 CNS = tested on: SF-295 CNS
SF-539 CNS = tested on: SF-539 CNS
SK-MEL-2 melanoma = tested on: SK-MEL-2 melanoma
SK-MEL-28 melanoma = tested on: SK-MEL-28 melanoma
SK-MEL-5 melanoma = tested on: SK-MEL-5 melanoma
SK-OV-3 ovarian = tested on: SK-OV-3 ovarian
SN12C renal = tested on: SN12C renal
SNB-19 CNS = tested on: SNB-19 CNS
SNB-75 CNS = tested on: SNB-75 CNS
SW-620 colon = tested on: SW-620 colon
T-47D breast = tested on: T-47D breast
TK-10 renal = tested on: TK-10 renal
U251 CNS = tested on: U251 CNS
UACC-257 melanoma = tested on: UACC-257 melanoma
UACC-62 melanoma = tested on: UACC-62 melanoma
UO-31 renal = tested on: UO-31 renal
A498 renal = tested on: A498 renal
CAKI-1 renal = tested on: CAKI-1 renal
HCC-2998 colon = tested on: HCC-2998 colon
KM12 colon = tested on: KM12 colon
MCF7 breast = tested on: MCF7 breast
OVCAR-4 ovarian = tested on: OVCAR-4 ovarian
SR leukemia = tested on: SR leukemia
MDA-MB-435 = tested on: MDA-MB-435
RPMI-8226 leukemia = tested on: RPMI-8226 leukemia

CCOP(=O)(O)CC1OC(CO)C(O)C1O (stereo not drawn)
TGI (786-0 renal): > 100 µM | TGI (A549 NSCLC): > 100 µM | TGI (ACHN renal): > 100 µM | TGI (BT-549 breast): > 100 µM | TGI (CCRF-CEM leukemia): > 100 µM | TGI (COLO 205 colon): > 100 µM | TGI (DU-145 prostate): > 100 µM | TGI (EKVX NSCLC): > 100 µM | TGI (HCT-116 colon): > 100 µM | TGI (HCT-15 colon): > 100 µM | GI50 (HL-60(TB) leukemia): 30.1 µM and > 100 µM | TGI (HL-60(TB) leukemia): > 100 µM | TGI (HOP-62 NSCLC): > 100 µM | TGI (HOP-92 NSCLC): > 100 µM | TGI (HS 578T breast): > 100 µM | TGI (HT29 colon): > 100 µM | TGI (IGROV1 ovarian): > 100 µM | TGI (K-562 leukemia): > 100 µM | TGI (LOX IMVI melanoma): > 100 µM | TGI (M14 melanoma): > 100 µM | TGI (MALME-3M melanoma): > 100 µM | TGI (MDA-MB-231 breast): > 100 µM | TGI (MDA-N): > 100 µM | TGI (MOLT-4 leukemia): > 100 µM | TGI (NCI-H226 lung): > 100 µM | TGI (NCI-H23 lung): > 100 µM | TGI (NCI-H460 lung): > 100 µM | TGI (NCI-H522 lung): > 100 µM | TGI (NCI/ADR-RES ovarian): > 100 µM | TGI (OVCAR-3 ovarian): > 100 µM | TGI (OVCAR-5 ovarian): > 100 µM | TGI (OVCAR-8 ovarian): > 100 µM | TGI (PC-3 prostate): > 100 µM | TGI (RXF 393 renal): > 100 µM | TGI (SF-268 CNS): > 100 µM | TGI (SF-295 CNS): > 100 µM | TGI (SF-539 CNS): > 100 µM | TGI (SK-MEL-2 melanoma): > 100 µM | TGI (SK-MEL-28 melanoma): > 100 µM | TGI (SK-MEL-5 melanoma): > 100 µM | TGI (SK-OV-3 ovarian): > 100 µM | TGI (SN12C renal): > 100 µM | TGI (SNB-19 CNS): > 100 µM | TGI (SNB-75 CNS): > 100 µM | TGI (SW-620 colon): > 100 µM | TGI (T-47D breast): > 100 µM | TGI (TK-10 renal): > 100 µM | TGI (U251 CNS): > 100 µM | TGI (UACC-257 melanoma): > 100 µM | TGI (UACC-62 melanoma): > 100 µM | TGI (UO-31 renal): > 100 µM

Cc1ccc(C(=O)Nc2ccc(S(=O)(=O)O)c3cc(S(=O)(=O)O)cc(S(=O)(=O)O)c23)cc1N
TGI (786-0 renal): > 100 µM | TGI (A498 renal): > 100 µM | TGI (ACHN renal): > 100 µM | TGI (BT-549 breast): > 100 µM | TGI (CAKI-1 renal): > 100 µM | TGI (CCRF-CEM leukemia): > 100 µM | TGI (COLO 205 colon): > 100 µM | TGI (DU-145 prostate): > 100 µM | TGI (EKVX NSCLC): > 100 µM | TGI (HCC-2998 colon): > 100 µM | TGI (HCT-116 colon): > 100 µM | TGI (HCT-15 colon): > 100 µM | TGI (HL-60(TB) leukemia): > 100 µM | TGI (HOP-62 NSCLC): > 100 µM | TGI (HS 578T breast): > 100 µM | TGI (HT29 colon): > 100 µM | TGI (IGROV1 ovarian): > 100 µM | TGI (K-562 leukemia): > 100 µM | TGI (KM12 colon): > 100 µM | TGI (M14 melanoma): > 100 µM | TGI (MALME-3M melanoma): > 100 µM | TGI (MCF7 breast): > 100 µM | TGI (MDA-MB-231 breast): > 100 µM | TGI (MDA-N): > 100 µM | TGI (MOLT-4 leukemia): > 100 µM | TGI (NCI-H226 lung): > 100 µM | TGI (NCI-H23 lung): > 100 µM | TGI (NCI-H460 lung): > 100 µM | TGI (NCI-H522 lung): > 100 µM | TGI (NCI/ADR-RES ovarian): > 100 µM | TGI (OVCAR-3 ovarian): > 100 µM | TGI (OVCAR-4 ovarian): > 100 µM | TGI (OVCAR-5 ovarian): > 100 µM | TGI (OVCAR-8 ovarian): > 100 µM | TGI (PC-3 prostate): > 100 µM | TGI (RXF 393 renal): > 100 µM | TGI (SF-268 CNS): > 100 µM | TGI (SF-295 CNS): > 100 µM | TGI (SF-539 CNS): > 100 µM | TGI (SK-MEL-2 melanoma): > 100 µM | TGI (SK-MEL-28 melanoma): > 100 µM | TGI (SK-MEL-5 melanoma): > 100 µM | TGI (SK-OV-3 ovarian): > 100 µM | TGI (SN12C renal): > 100 µM | TGI (SNB-19 CNS): > 100 µM | TGI (SNB-75 CNS): > 100 µM | TGI (SR leukemia): > 100 µM | TGI (SW-620 colon): > 100 µM | TGI (T-47D breast): > 100 µM | TGI (TK-10 renal): > 100 µM | TGI (UACC-257 melanoma): > 100 µM | TGI (UACC-62 melanoma): > 100 µM | TGI (UO-31 renal): > 100 µM

Fc1cccc(C2SCC3=Nc4ccccc4CN32)c1 (stereo not drawn)
TGI (786-0 renal): > 100 µM | TGI (A498 renal): > 100 µM | TGI (A549 NSCLC): > 100 µM | TGI (ACHN renal): > 100 µM | TGI (BT-549 breast): > 100 µM | TGI (CAKI-1 renal): > 100 µM | TGI (CCRF-CEM leukemia): > 100 µM | TGI (COLO 205 colon): > 100 µM | TGI (DU-145 prostate): > 100 µM | TGI (EKVX NSCLC): > 100 µM | TGI (HCC-2998 colon): > 100 µM | TGI (HCT-116 colon): 88.6 µM | TGI (HCT-15 colon): > 100 µM | TGI (HL-60(TB) leukemia): > 100 µM | TGI (HOP-62 NSCLC): > 100 µM | TGI (HOP-92 NSCLC): > 100 µM | TGI (HT29 colon): 74.3 µM | TGI (K-562 leukemia): > 100 µM | TGI (KM12 colon): > 100 µM | TGI (LOX IMVI melanoma): > 100 µM | TGI (M14 melanoma): > 100 µM | TGI (MCF7 breast): > 100 µM | TGI (MDA-MB-231 breast): > 100 µM | TGI (MDA-MB-435): > 100 µM | TGI (MDA-N): > 100 µM | TGI (MOLT-4 leukemia): > 100 µM | TGI (NCI-H23 lung): > 100 µM | TGI (NCI-H460 lung): > 100 µM | TGI (NCI/ADR-RES ovarian): 35.9 µM | TGI (OVCAR-3 ovarian): 70.5 µM | TGI (OVCAR-4 ovarian): > 100 µM | TGI (OVCAR-5 ovarian): > 100 µM | TGI (OVCAR-8 ovarian): > 100 µM | TGI (PC-3 prostate): > 100 µM | TGI (RPMI-8226 leukemia): > 100 µM | TGI (RXF 393 renal): > 100 µM | TGI (SF-268 CNS): > 100 µM | TGI (SF-295 CNS): > 100 µM | TGI (SF-539 CNS): > 100 µM | TGI (SK-MEL-2 melanoma): 49.7 µM | TGI (SK-MEL-28 melanoma): > 100 µM | TGI (SK-MEL-5 melanoma): 41.1 µM | TGI (SK-OV-3 ovarian): > 100 µM | TGI (SN12C renal): > 100 µM | TGI (SNB-19 CNS): > 100 µM | TGI (SNB-75 CNS): > 100 µM | TGI (SR leukemia): > 100 µM | TGI (SW-620 colon): > 100 µM | TGI (T-47D breast): > 100 µM | TGI (TK-10 renal): > 100 µM | TGI (U251 CNS): > 100 µM | TGI (UACC-257 melanoma): > 100 µM | TGI (UACC-62 melanoma): > 100 µM | TGI (UO-31 renal): > 100 µM
